How the values were obtained:
Mu-type opioid receptor [1] = biological target: Mu-type opioid receptor (Mus musculus, UniProt P42866); test: Displacement of [3H]DAMGO from mouse whole brain MOR
[2] = biological target: Delta-type opioid receptor (Mus musculus, UniProt P32300); test: Displacement of [3H]DPDPE from mouse whole brain DOR
[3] = biological target: Kappa-type opioid receptor (Cavia porcellus, UniProt P41144); test: Displacement of [3H]U-69593 from guinea pig cerebellum KOR
[4] = biological target: T1, Delta-type opioid receptor (Homo sapiens, UniProt P41143); test: Agonist activity at human DOR expressed in CHO cells by [35S]GTPgammaS binding assay; type: functional, cell-based
Mu-type opioid receptor [5] = biological target: T2, Mu-type opioid receptor (Homo sapiens, UniProt P35372); test: Agonist activity at human MOR expressed in CHO cells by [35S]GTPgammaS binding assay; type: functional, cell-based
[6] = biological target: T1, Delta-type opioid receptor; test: Agonist activity at human DOR expressed in CHO cells by [35S]GTPgammaS binding assay relative to DPDPE; type: functional, cell-based
Mu-type opioid receptor [7] = biological target: T2, Mu-type opioid receptor; test: Agonist activity at human MOR expressed in CHO cells by [35S]GTPgammaS binding assay relative to DAMGO; type: functional, cell-based
[8] = biological target: T3, Kappa-type opioid receptor (Homo sapiens, UniProt P41145); test: Agonist activity at human KOR expressed in CHO cells by [35S]GTPgammaS binding assay relative to U-69593; type: functional, cell-based
[9] = biological target: T3, Kappa-type opioid receptor; test: Agonist activity at human KOR expressed in CHO cells by [35S]GTPgammaS binding assay; type: functional, cell-based

Kappa-type opioid receptor (Cavia porcellus, UniProt P41144), sequence (P41144 whole entry): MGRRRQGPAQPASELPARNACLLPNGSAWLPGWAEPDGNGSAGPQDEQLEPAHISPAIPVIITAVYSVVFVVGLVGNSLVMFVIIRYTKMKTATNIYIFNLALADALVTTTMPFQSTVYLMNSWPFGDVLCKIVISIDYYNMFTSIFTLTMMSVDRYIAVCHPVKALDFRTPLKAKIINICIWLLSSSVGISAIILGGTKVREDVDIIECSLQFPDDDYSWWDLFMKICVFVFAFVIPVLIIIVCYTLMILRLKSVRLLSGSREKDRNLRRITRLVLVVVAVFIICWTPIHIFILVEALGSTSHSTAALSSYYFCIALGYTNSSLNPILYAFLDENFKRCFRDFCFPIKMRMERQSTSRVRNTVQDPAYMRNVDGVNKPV
Delta-type opioid receptor (Mus musculus, UniProt P32300), sequence (P32300 whole entry): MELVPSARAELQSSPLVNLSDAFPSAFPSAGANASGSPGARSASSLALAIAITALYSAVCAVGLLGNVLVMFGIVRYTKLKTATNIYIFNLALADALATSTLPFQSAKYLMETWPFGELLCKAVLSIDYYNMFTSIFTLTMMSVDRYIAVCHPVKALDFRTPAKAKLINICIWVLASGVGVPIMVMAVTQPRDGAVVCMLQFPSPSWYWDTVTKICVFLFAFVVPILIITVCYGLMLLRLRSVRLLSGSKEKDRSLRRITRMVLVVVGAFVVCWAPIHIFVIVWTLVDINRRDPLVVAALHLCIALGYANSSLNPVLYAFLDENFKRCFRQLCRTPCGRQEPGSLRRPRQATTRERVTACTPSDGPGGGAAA
Mu-type opioid receptor (Mus musculus, UniProt P42866), sequence (P42866 whole entry): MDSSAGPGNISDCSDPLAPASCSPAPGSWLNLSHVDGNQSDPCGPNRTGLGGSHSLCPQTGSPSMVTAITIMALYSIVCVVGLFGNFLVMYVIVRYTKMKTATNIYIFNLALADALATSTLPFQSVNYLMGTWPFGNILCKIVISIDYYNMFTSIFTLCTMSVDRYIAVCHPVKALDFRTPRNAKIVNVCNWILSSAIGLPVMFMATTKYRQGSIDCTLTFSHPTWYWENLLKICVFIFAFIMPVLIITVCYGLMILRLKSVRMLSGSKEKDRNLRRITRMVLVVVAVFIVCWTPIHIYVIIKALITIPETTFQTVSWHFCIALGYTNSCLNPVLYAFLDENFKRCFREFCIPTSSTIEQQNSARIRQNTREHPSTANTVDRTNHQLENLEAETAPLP
T2 sequence (P35372 whole entry): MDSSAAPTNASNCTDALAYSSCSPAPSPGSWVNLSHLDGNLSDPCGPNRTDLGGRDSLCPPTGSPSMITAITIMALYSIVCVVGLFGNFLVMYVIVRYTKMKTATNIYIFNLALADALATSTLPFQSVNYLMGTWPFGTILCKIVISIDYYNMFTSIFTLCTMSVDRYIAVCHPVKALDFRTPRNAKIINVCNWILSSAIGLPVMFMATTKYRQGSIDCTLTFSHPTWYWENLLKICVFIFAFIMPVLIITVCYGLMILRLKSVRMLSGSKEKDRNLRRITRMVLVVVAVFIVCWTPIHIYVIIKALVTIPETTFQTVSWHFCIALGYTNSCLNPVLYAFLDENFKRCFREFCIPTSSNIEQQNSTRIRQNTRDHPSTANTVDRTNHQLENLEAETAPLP
T3 sequence (P41145 whole entry): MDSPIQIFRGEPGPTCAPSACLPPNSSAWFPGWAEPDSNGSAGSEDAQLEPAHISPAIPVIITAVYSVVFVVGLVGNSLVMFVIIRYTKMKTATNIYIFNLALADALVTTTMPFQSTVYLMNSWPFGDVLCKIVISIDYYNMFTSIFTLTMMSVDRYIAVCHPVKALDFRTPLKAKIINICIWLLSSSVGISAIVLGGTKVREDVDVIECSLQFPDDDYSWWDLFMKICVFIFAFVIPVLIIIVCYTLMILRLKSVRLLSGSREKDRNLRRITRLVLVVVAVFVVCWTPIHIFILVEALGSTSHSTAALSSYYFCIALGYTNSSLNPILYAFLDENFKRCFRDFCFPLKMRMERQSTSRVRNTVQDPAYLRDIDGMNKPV
T1 sequence (P41143 whole entry): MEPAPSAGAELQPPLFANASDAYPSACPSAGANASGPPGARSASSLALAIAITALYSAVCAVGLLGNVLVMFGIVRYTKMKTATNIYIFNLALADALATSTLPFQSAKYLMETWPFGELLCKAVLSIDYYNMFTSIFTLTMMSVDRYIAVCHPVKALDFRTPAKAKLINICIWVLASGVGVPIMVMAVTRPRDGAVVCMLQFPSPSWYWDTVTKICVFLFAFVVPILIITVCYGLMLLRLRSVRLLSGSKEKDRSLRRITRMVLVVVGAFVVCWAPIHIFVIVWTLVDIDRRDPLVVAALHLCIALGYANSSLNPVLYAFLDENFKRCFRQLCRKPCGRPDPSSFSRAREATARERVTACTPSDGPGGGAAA

SMILES | Ki (Mu-type opioid receptor [1]) [nM] | Ki [2] [nM] | Ki [3] [nM] | EC50 [4] [nM] | EC50 (Mu-type opioid receptor [5]) [nM] | Emax [6] [%] | Emax (Mu-type opioid receptor [7]) [%] | Emax [8] [%] | EC50 [9] [nM]
C[C@@]1(c2ccc(O)cc2)O[C@@H]2N3[C@H]1O[C@](C)(c1ccc(O)cc1)[C@@H]3O[C@]2(C)c1ccc(O)cc1 | > 1000 | > 1000 | > 1000 |  |  |  |  |  | 
C[C@@]1(c2ccccc2O)O[C@@H]2N3[C@H]1O[C@](C)(c1ccccc1O)[C@@H]3O[C@@]2(C)c1ccccc1O | > 1000 | > 1000 | > 1000 |  |  |  |  |  | 
C[C@@]1(c2ccc(O)cc2)O[C@@H]2N3[C@H]1O[C@@](C)(c1ccc(O)cc1)[C@@H]3O[C@@]2(C)c1ccc(O)cc1 | > 1000 | > 1000 | > 1000 |  |  |  |  |  | 
C[C@]1(c2ccc(O)cc2)O[C@H]2CO[C@@H]3N2[C@H]1O[C@]3(C)c1ccc(O)cc1 | > 1000 | > 1000 | > 1000 |  |  |  |  |  | 
C[C@@]1(c2ccccc2O)O[C@@H]2N3[C@H]1O[C@](C)(c1ccccc1O)[C@@H]3O[C@]2(C)c1ccccc1O | > 1000 | > 1000 | > 1000 |  |  |  |  |  | 
C[C@@]1(c2ccc(O)cc2)O[C@@H]2N3[C@H]1O[C@](C)(c1ccc(O)cc1)[C@@H]3O[C@@]2(C)c1ccc(O)cc1 | > 1000 | > 1000 | > 1000 |  |  |  |  |  | 
C[C@]1(c2ccccc2O)O[C@H]2CO[C@@H]3N2[C@H]1O[C@]3(C)c1ccccc1O | > 1000 | > 1000 | > 1000 |  |  |  |  |  | 
C[C@@]1(c2ccc(O)cc2)O[C@@H]2N3[C@H](CO[C@H]31)O[C@]2(C)c1ccc(O)cc1 | > 1000 | > 1000 | > 1000 |  |  |  |  |  | 
C[C@@]1(c2ccccc2O)O[C@@H]2N3[C@H]1O[C@@](C)(c1ccccc1O)[C@@H]3O[C@@]2(C)c1ccccc1O | > 1000 | > 1000 | > 1000 |  |  |  |  |  | 
C[C@@]1(c2ccc(O)cc2)O[C@H]2CO[C@H]3CO[C@@H]1N32 | > 1000 | > 1000 | > 1000 |  |  |  |  |  | 
C[C@]1(c2ccc(O)cc2)O[C@H]2CO[C@H]3CO[C@@H]1N32 | > 1000 | > 1000 | > 1000 |  |  |  |  |  | 
C[C@@]1(c2ccc(O)cc2)O[C@H]2CO[C@@H]3N2[C@H]1O[C@]3(C)c1ccc(O)cc1 | > 1000 | > 1000 | > 1000 |  |  |  |  |  | 
C[C@@]1(c2ccccc2O)O[C@H]2CO[C@@H]3N2[C@H]1O[C@]3(C)c1ccccc1O | > 1000 | > 1000 | > 1000 |  |  |  |  |  | 
C[C@@]1(c2ccccc2O)O[C@@H]2N3[C@H](CO[C@H]31)O[C@]2(C)c1ccccc1O | 20.5 | 88.8 | 9.17 | 52.7 | 57.6 | 73.6 | 89.2 | 131 | 9.95
C[C@@]1(c2ccc(O)cc2)O[C@H]2CO[C@@H]3N2[C@H]1O[C@@]3(C)c1ccc(O)cc1 | > 1000 | > 1000 | > 1000 |  |  |  |  |  | 
C[C@]1(c2ccccc2O)O[C@H]2CO[C@H]3CO[C@@H]1N32 | > 1000 | > 1000 | > 1000 |  |  |  |  |  | 
C[C@@]1(c2ccccc2O)O[C@H]2CO[C@H]3CO[C@@H]1N32 | > 1000 | > 1000 | > 1000 |  |  |  |  |  | 
C[C@@]1(c2ccccc2O)O[C@H]2CO[C@@H]3N2[C@H]1O[C@@]3(C)c1ccccc1O | > 1000 | > 1000 | > 1000 |  |  |  |  |  | 

Source: ChEMBL document CHEMBL3352005, “Synthesis of a novel universal opioid receptor agonist with the 1,3,5-trioxazatriquinane skeleton and its pharmacologies” (Bioorg Med Chem Lett, 2014)
